# Laboratory results: patent US10597377B2, “Somatostatin modulators and uses thereof” (priority 2016, dated 2020)
# Molecular target: human SSTR2 (Homo sapiens (Human), UniProt P30874)
# Test: Human SSTR2 intracellular cAMP functional assay for agonists (CHO-K1 cells, HTRF)
# Format: cell-based
# Conditions: inhibition of cAMP activities via human SST2R; CHO-K1 cells stably expressing human SSTR2
# Description: Functional Assay for SSTR2 Agonists
# General overview: All five SSTR subtypes are Gi coupled G-protein coupled receptors (GPCRs) that lead to decreases in intracellular cyclic AMP (cAMP) when activated by an agonist. […] Human SSTR2 intracellular cAMP assay is described below. The human SSTR1, 3, 4 and 5 assays follow the same protocol of SSTR2.
# The cells are cultured at 37° C., 5% CO2 and 95% humidity. […] The cells are incubated for 20 minutes at 37° C. […] The cells are treated with 50 μL of lysis buffer (HRTF cAMP kit, Cisbio). […] The time-resolved fluorescent signal is read with a Tecan M1000Pro multiplate reader. The intracellular cAMP concentrations are calculated by regression to a standard curve and are plotted vs. the concentration of the compounds of the invention and the EC50 of the compounds are calculated using standard methods. All data manipluations are in GraphPad Prism v6.
# Sequence of human SSTR2 (P30874 whole entry): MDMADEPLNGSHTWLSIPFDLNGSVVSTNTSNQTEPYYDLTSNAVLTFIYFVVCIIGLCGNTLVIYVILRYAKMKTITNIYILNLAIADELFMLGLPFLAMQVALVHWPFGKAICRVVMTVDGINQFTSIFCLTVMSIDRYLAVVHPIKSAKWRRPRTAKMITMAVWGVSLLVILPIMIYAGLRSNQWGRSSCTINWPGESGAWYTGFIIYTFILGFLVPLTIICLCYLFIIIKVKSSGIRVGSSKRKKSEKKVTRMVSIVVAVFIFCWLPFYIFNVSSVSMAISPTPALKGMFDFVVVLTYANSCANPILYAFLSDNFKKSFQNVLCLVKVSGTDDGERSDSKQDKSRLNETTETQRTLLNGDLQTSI
row,Structure (SMILES),EC50
1,"COC(=O)Nc1c(F)cncc1-c1ccc2ncc(-c3cc(C)cc(F)c3)c(N3CCC(N)CC3)c2c1 [2-171, methyl N-{3-[4-(4-aminopiperidin-1-yl)-3-(3-fluoro-5-methylphenyl)quinolin-6-yl]-5-fluoropyridin-4-yl}carbamate]",< 10 nM
2,"COC(=O)Nc1ncc(F)cc1-c1ccc2ncc(-c3cc(C)cc(F)c3)c(N3CCC(N)CC3)c2c1 [2-182, methyl N-{3-[4-(4-aminopiperidin-1-yl)-3-(3-fluoro-5-methylphenyl)quinolin-6-yl]-5-fluoropyridin-2-yl}carbamate]",< 10 nM
3,"Cc1cc(F)cc(-c2cnc3ccc(-c4cc(F)cc(C#N)c4O)nc3c2N2CCC(N)CC2)c1 [3-2, 3-[8-(4-aminopiperidin-1-yl)-7-(3-fluoro-5-methylphenyl)-1,5-naphthyridin-2-yl]-5-fluoro-2-hydroxybenzonitrile]",< 10 nM

# Further lines, results first:
row,EC50,Structure (SMILES)
1,< 10 nM,"N#Cc1cncc(-c2ccc3ncc(-c4cc(F)cc(F)c4)c(N4CC[C@H]5NCCO[C@@H]5C4)c3c2)c1N (racemic) [2-244, 5-{4-[trans-octahydro-1H-pyrido[3,4-b]morpholin-6-yl]-3-(3,5-difluorophenyl)quinolin-6-yl}-4-aminopyridine-3-carbonitrile]"
2,< 10 nM,Nc1ncccc1-c1ccc2ncc(-c3cc(F)cc(F)c3)c(N3CC[C@H]4NCCO[C@@H]4C3)c2c1 (racemic) [2-246]
3,< 10 nM,"Cc1cc(F)cc(-c2nnc3cc(Cl)c(-c4cc(F)cc(C(N)=O)c4)cc3c2N2CC[C@@H](N)[C@H](O)C2)c1 (relative stereo) [1-26, 3-{4-[trans-4-amino-3-hydroxypiperidin-1-yl]-7-chloro-3-(3-fluoro-5-methylphenyl)cinnolin-6-yl}-5-fluorobenzamide]"
4,< 10 nM,"C#Cc1ccnc(-c2ccc3ncc(-c4cc(F)cc(F)c4)c(N4CC[C@H]5NCCO[C@@H]5C4)c3c2)c1N [2-277, 2-{4-[trans-octahydro-1H-pyrido[3,4-b]morpholin-6-yl]-3-(3,5-difluorophenyl)quinolin-6-yl]-4-ethynylpyridin-3-amine]"
